In patent EP0874850B1, “NOVEL TRICYCLIC COMPOUNDS FOR THE INHIBITION OF THE ICE/CED-3 PROTEASE FAMILY OF ENZYMES” (Idun Pharmaceuticals, Inc., priority 1996, dated 1998):
Residues, ends and D or L forms follow the SMILES beside them. *: point of attachment. Cbz = O=C(OCc1ccccc1)*; CH2F = FC*

Key:
Type in all cases: biochemical
mICE [1] = test: Fluorescence enzyme assay, determination of IC50 values (ICE); conditions: recombinant enzyme; 30 minutes preincubation at room temperature; substrate Acetyl-Tyr-Val-Ala-Asp-amino-4-methylcoumarin
Method: (§1) The substrate is Acetyl-Tyr-Val-Ala-Asp-amino-4-methylcoumarin (AMC) for the ICE assay and Acetyl-Asp-Glu-Val-Asp-amino-4-methylcoumarin for the CPP32, Mch2, Mch3 and Mch5 assays. Enzyme reactions were run in ICE buffer (25 mM HEPES, 1 mM EDTA, 0.1% CHAPS, 10% sucrose, pH 7.5) containing 2 mM DTT at room temperature in duplicate.
(§2) The enzyme and the compound of Formula 1 to be assayed were allowed to preincubate in the microtitre plate wells for 30 minutes at room temperature prior to the addition of substrate to initiate the reaction. Fluorescent AMC product formation was monitored for one hour at room temperature by measuring the fluorescence emission at 460 nm using an excitation wavelength of 360 nm. […]
(§3) The reference compound for this assay was Cbz-ValAlaAsp-H and the values are denoted in Table 1 as "Reference".

CPP32 [2] = test: Fluorescence enzyme assay, determination of IC50 values (CPP32); conditions: recombinant enzyme; 30 minutes preincubation at room temperature; substrate Acetyl-Asp-Glu-Val-Asp-amino-4-methylcoumarin
Method: as §1, §2, §3

MCH-2 [3] = test: Fluorescence enzyme assay, determination of IC50 values (Mch2); conditions: 30 minutes preincubation at room temperature; substrate Acetyl-Asp-Glu-Val-Asp-amino-4-methylcoumarin
Method: as §1, §2, §3

MCH-3 = test: Fluorescence enzyme assay, determination of IC50 values (Mch3); conditions: 30 minutes preincubation at room temperature; substrate Acetyl-Asp-Glu-Val-Asp-amino-4-methylcoumarin
Method: as §1, §2, §3

MCH-5 [4] = test: Fluorescence enzyme assay, determination of IC50 values (Mch5); conditions: 30 minutes preincubation at room temperature; substrate Acetyl-Asp-Glu-Val-Asp-amino-4-methylcoumarin
Method: as §1, §2, §3

mICE [5] = test: Determination of dissociation constant Ki and irreversible rate constant k3 for irreversible inhibitors (ICE)
Excerpt: (§4) For the irreversible inhibition of a ICE/ced-3 Family Protease enzyme with a competitive irreversible inhibitor; using the model represented by the following formulas: [drawing 15] [drawing 16] The product formation at time t may be expressed as: [formula] where E, I, EI and E-I denote the active enzyme, inhibitor, non-covalent enzyme-inhibitor complex and covalent enzyme-inhibitor adduct, respectively. The Ki value is the overall dissociation constant of the reversible binding steps, and k3 is the irreversible rate constant. The [S] and Ks values are the substate concentration and dissociation constant of the substrate bound to the enzyme, respectively. [E]^T is the total enzyme concentration.
(§5) The above equations were used to determine the Ki and k3 values of a given inhibitor bound to a ICE/ced-3 family protease. Thus, a continuous assay was run for sixty minutes at various concentrations of the inhibitor and the substrate. The assay was formulated essentially the same as described above for generating the data in Table 1, except that the reaction was initiated by adding the enzyme to the substrate-inhibitor mixture. The Ki and k3 values were obtained by simulating the product AMC formation as a function of time according to Equation I. The results of this second assay are set forth below in Table 2. […]

CPP32 [6] = test: Determination of dissociation constant Ki and irreversible rate constant k3 for irreversible inhibitors (CPP32)
Excerpt: as §4, §5

MCH-2 [7] = test: Determination of dissociation constant Ki and irreversible rate constant k3 for irreversible inhibitors (Mch2)
Excerpt: as §4, §5

MCH-5 [8] = test: Determination of dissociation constant Ki and irreversible rate constant k3 for irreversible inhibitors (Mch5)
Excerpt: as §4, §5

[9] = continuous assay for sixty minutes, reaction initiated by adding the enzyme

Row | IC50 (mICE [1]) | IC50 (CPP32 [2]) | IC50 (MCH-2 [3]) | IC50 (MCH-3) | IC50 (MCH-5 [4]) | k3/Ki (mICE [5]; Reference) | Ki (mICE [5]; [9]) | k3/Ki (CPP32 [6]; Reference) | Ki (CPP32 [6]; [9]) | k3/Ki (MCH-2 [7]; Reference) | Ki (MCH-2 [7]; [9]) | k3/Ki (MCH-5 [8]; Reference) | Ki (MCH-5 [8]; [9]) | Compound
1 | 64 nM | 47000 nM | > 10000 nM | > 10000 nM | 2960 nM | – | – | – | – | – | – | – | – | CC(C)[C@H](NC(=O)OCc1ccccc1)C(=O)N[C@@H](C)C(=O)N[C@H](C=O)CC(=O)O [Ref., Cbz-ValAlaAsp-H] (Cbz-Val-Ala-Asp-aldehyde)
2 | – | – | – | – | – | 214,000 M^-1s^-1 | 15 nM | 12,200 M^-1s^-1 | 820 nM | 2,950 M^-1s^-1 | 594 nM | 83,300 M^-1s^-1 | 18 nM | Cbz-Val-Ala-Asp-CH2F [Reference]
